Among the test systems are NCI-H522 lung; LXFL 529 NSCLC; RPMI-8226 leukemia; DMS 273 small cell lung; DMS 114 small cell lung; SK-OV-3 ovarian; UACC-257 melanoma; XF 498 CNS; M19-MEL melanoma; KM20L2 colon; DLD-1 colon; HT29 colon; SNB-78 CNS; HOP-18 NSCLC.
Common to all, as to test: DTP human tumour cell line panel, 48 h

Our source for the TGI and GI50 values is PubChem BioAssay (NCI).

SMILES strings stand for the structures.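 Protocol summary: plate cells (96-well), add compound at 5 concentrations, incubate 48 h, interpolate endpoints linearly. The concentration for 50% growth inhibition is given as GI50. TGI denotes the concentration required for complete inhibition of growth.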

On to `N#C/C(c1nc2ccccc2[nH]1)=c1\s/c(=C/c2ccccc2)c(=O)n1-c1ccccc1`, for which the TGI in the assay on NCI-H522 lung, in the assay with LXFL 529 NSCLC, with RPMI-8226 leukemia, with DMS 273 small cell lung, in the assay with DMS 114 small cell lung and in the assay on SK-OV-3 ovarian was above 100 µM each time. Besides, the TGI with UACC-257 melanoma, in the assay on XF 498 CNS, in the assay with M19-MEL melanoma, with KM20L2 colon and in the assay with DLD-1 colon was above 100 µM in each case.
`O=C1C(Cl)C(c2ccccc2Cl)N1n1cnc2ccccc2c1=O` (centres undefined): the total growth inhibition concentration (TGI) with NCI-H522 lung was 85.2 µM; in the assay with LXFL 529 NSCLC, above 100 µM; in the assay on RPMI-8226 leukemia, above 100 µM; in the assay on DMS 273 small cell lung it was above 100 µM; with HT29 colon, above 100 µM; in the assay on DMS 114 small cell lung it was above 100 µM. For the same molecule, the TGI was above 100 µM in the assay with SNB-78 CNS; 72.5 µM in the assay on SK-OV-3 ovarian; above 100 µM in the assay with UACC-257 melanoma; above 100 µM in the assay on XF 498 CNS; above 100 µM in the assay with M19-MEL melanoma; above 100 µM with KM20L2 colon. The molecule also showed a TGI in the assay with DLD-1 colon above 100 µM.
Regarding `NC(=O)N/N=C(\CC1OC(=O)c2ccccc21)c1ccc([N+](=O)[O-])cc1` (centres undefined), the TGI is above 100 µM in the assay on LXFL 529 NSCLC; above 100 µM with RPMI-8226 leukemia; 76.1 µM in the assay on DMS 273 small cell lung; above 100 µM with HT29 colon; above 100 µM with UACC-257 melanoma; above 100 µM with XF 498 CNS. Besides, the results for the concentration for total growth inhibition (TGI) with M19-MEL melanoma, with KM20L2 colon and in the assay with DLD-1 colon were 68.1 µM, 96.2 µM and 47.9 µM, respectively.
With `Cc1ccc(C(=O)NC2CCCCC2)cc1N=NN(C)C`, the concentration for total growth inhibition (TGI) in the assay on NCI-H522 lung, in the assay on LXFL 529 NSCLC, in the assay with DMS 273 small cell lung, with HT29 colon, in the assay on SNB-78 CNS and with UACC-257 melanoma was above 100 µM throughout. For the same molecule, the TGI in the assay on M19-MEL melanoma, in the assay on KM20L2 colon and in the assay with DLD-1 colon was above 100 µM each time.
`CC1(O)CC2C(CC1SC1CC3C(CC1(C)O)C3(C)C)C2(C)C` (centres undefined): the concentration for total growth inhibition (TGI) with LXFL 529 NSCLC, with RPMI-8226 leukemia, in the assay with DMS 273 small cell lung, with HT29 colon, with DMS 114 small cell lung and in the assay on SNB-78 CNS was above 100 µM each time. The concentration for total growth inhibition (TGI) is above 100 µM in the assay with SK-OV-3 ovarian; above 100 µM in the assay on UACC-257 melanoma; above 100 µM with XF 498 CNS; 63.4 µM in the assay on M19-MEL melanoma; above 100 µM in the assay on HOP-18 NSCLC; above 100 µM with DLD-1 colon.
Turning to `CCOC(=O)C(C)NC(=O)NC12CC3CC(CC(F)(C3)C1)C2` (centres undefined), the TGI with NCI-H522 lung, in the assay on LXFL 529 NSCLC, in the assay on RPMI-8226 leukemia, in the assay with DMS 273 small cell lung, in the assay on HT29 colon and with DMS 114 small cell lung was above 100 µM in each case. The total growth inhibition concentration (TGI) in the assay on SNB-78 CNS is 83.3 µM; in the assay with SK-OV-3 ovarian, above 100 µM; in the assay with UACC-257 melanoma, above 100 µM; in the assay on XF 498 CNS, 89.4 µM; in the assay on M19-MEL melanoma it was above 100 µM; in the assay with KM20L2 colon it was above 100 µM. This molecule also returned a TGI in the assay with DLD-1 colon above 100 µM.
On to `N#CC(NNC(=O)Cc1ccccc1)c1ccc([N+](=O)[O-])cc1` (centres undefined), for which the TGI with NCI-H522 lung, with LXFL 529 NSCLC, in the assay on RPMI-8226 leukemia, with DMS 273 small cell lung, in the assay on HT29 colon and with SNB-78 CNS was above 100 µM throughout. Moreover, the total growth inhibition concentration (TGI) with SK-OV-3 ovarian, in the assay on UACC-257 melanoma, in the assay on M19-MEL melanoma, with HOP-18 NSCLC and with DLD-1 colon was above 100 µM each time.
For `COc1cc2c(c(OC)c1OC)-c1ccc(SC)c(=O)cc1[C@@H](NC(=O)c1cccc([N+](=O)[O-])c1)CC2`, the total growth inhibition concentration (TGI) is 70.2 µM in the assay on DMS 273 small cell lung; 0.0708 µM in the assay on HT29 colon; 0.0365 µM in the assay on DMS 114 small cell lung; above 100 µM in the assay with SNB-78 CNS; 0.0638 µM in the assay with SK-OV-3 ovarian; 33.9 µM with UACC-257 melanoma. Further, the total growth inhibition concentration (TGI) with M19-MEL melanoma is above 100 µM; with KM20L2 colon it was 0.0358 µM; with DLD-1 colon, above 100 µM. In addition, the GI50 in the assay on DMS 114 small cell lung is 16.5 nM.
`O=C1/C(=C/c2ccccc2Cl)COc2ccc(Br)cc21`: the TGI in the assay with NCI-H522 lung was 80.1 µM; with LXFL 529 NSCLC, above 100 µM; with DMS 273 small cell lung, above 100 µM; in the assay on HT29 colon, above 100 µM; in the assay with DMS 114 small cell lung, above 100 µM; in the assay with SNB-78 CNS, above 100 µM. Also, the TGI was 85 µM with SK-OV-3 ovarian; above 100 µM with UACC-257 melanoma; above 100 µM in the assay on XF 498 CNS; above 100 µM in the assay on M19-MEL melanoma; above 100 µM with KM20L2 colon; above 100 µM in the assay with HOP-18 NSCLC. Moreover, the TGI in the assay on DLD-1 colon is above 100 µM.
For the molecule `CC(=O)Nc1ccc(S(=O)(=O)c2nnc(NC(C)=O)s2)cc1`, the TGI in the assay with NCI-H522 lung, with RPMI-8226 leukemia, in the assay on HT29 colon, in the assay with SK-OV-3 ovarian and in the assay with UACC-257 melanoma was above 100 µM throughout.
As to `CC(C(=O)NCNC(=O)c1ccccc1)C(=O)Nc1ccccc1` (centres undefined), the TGI in the assay on NCI-H522 lung, in the assay on RPMI-8226 leukemia, in the assay on HT29 colon, with SK-OV-3 ovarian and in the assay on UACC-257 melanoma was above 100 µM throughout.
In the case of `O=C(CCN1CCCCC1)Nc1ccc2c(c1)C(=O)c1ccc(NC(=O)CCN3CCCCC3)cc1C2=O`, the TGI was determined as 32.7 µM with NCI-H522 lung; 4.64 µM in the assay with LXFL 529 NSCLC; 14.6 µM in the assay with RPMI-8226 leukemia; 3.87 µM in the assay on DMS 273 small cell lung; 9.99 µM in the assay with HT29 colon; 34.7 µM in the assay on DMS 114 small cell lung. Besides, the concentration for total growth inhibition (TGI) in the assay on SNB-78 CNS was 29.8 µM; in the assay on SK-OV-3 ovarian it was 26.4 µM; in the assay with UACC-257 melanoma, 30.5 µM; with M19-MEL melanoma, above 100 µM; in the assay on KM20L2 colon, 33.2 µM; in the assay with HOP-18 NSCLC, 30.7 µM. In the assay with DLD-1 colon, the concentration for total growth inhibition (TGI) stood at 15 µM.
As for `CCCC(=O)OCC1OC(n2cc(F)c(=O)[nH]c2=O)C(F)C1O` (centres undefined), the TGI with NCI-H522 lung, in the assay on RPMI-8226 leukemia, in the assay on HT29 colon, with SK-OV-3 ovarian and in the assay with UACC-257 melanoma was above 100 µM throughout.
Turning to `NC1CCN(c2nc3ccccc3c3c2CCCC3)CC1`, the total growth inhibition concentration (TGI) with NCI-H522 lung came to 19.3 µM; with RPMI-8226 leukemia, 11.1 µM; in the assay with HT29 colon it was 5.27 µM; with SK-OV-3 ovarian it was 27.1 µM; in the assay on UACC-257 melanoma, 4.31 µM.
In the same order, the values of `C/C(=C/CC[C@](C)(OC1OC(CO)C(O)C(O)C1O)[C@H]1CC[C@]2(C)[C@@H]1CC[C@@H]1[C@@]3(C)CC[C@H](O)C(C)(C)[C@@H]3C[C@H](O)[C@]12CO)CO` (some centres undefined) are above 100 µM, above 100 µM, above 100 µM, above 100 µM and above 100 µM.
The corresponding values for `FC(F)(F)c1ccc2c(-c3cc[nH]c3)ccnc2c1` are 94.9 µM, 95.2 µM, 39.2 µM, above 100 µM and above 100 µM.
In the same order, the values of `O=C1c2ccccc2CC12Cc1cc3c(cc1C2)CCC3` are above 100 µM, above 100 µM, 62.1 µM, above 100 µM and 91.3 µM.
`Cc1cc(C)n(-c2nc(-n3nc(C)cc3C)nc(-n3nc(C)cc3C)n2)n1`: the total growth inhibition concentration (TGI) in the assay on NCI-H522 lung, in the assay on RPMI-8226 leukemia, with HT29 colon, in the assay on SK-OV-3 ovarian and with UACC-257 melanoma was above 100 µM each time.
In the case of `CSc1nc(-c2ccccc2)[nH]c(=O)n1`, the TGI with NCI-H522 lung, in the assay with RPMI-8226 leukemia, in the assay with HT29 colon, with SK-OV-3 ovarian and in the assay with UACC-257 melanoma was above 100 µM throughout.
Take `CC1(C)CN(CC(=O)O)CC(Cc2ccc(OCC(=O)O)cc2)N(CC(=O)O)CC(C)(C)SS1` (centres undefined): the TGI in the assay with NCI-H522 lung, in the assay on RPMI-8226 leukemia, with HT29 colon, with SK-OV-3 ovarian and in the assay with UACC-257 melanoma was above 100 µM throughout.
`N#CC(O)CCOCc1ccccc1` (centres undefined): the concentration for total growth inhibition (TGI) in the assay with NCI-H522 lung was 51.4 µM; in the assay on RPMI-8226 leukemia it was above 100 µM; in the assay on HT29 colon it was above 100 µM; with SK-OV-3 ovarian, above 100 µM; with UACC-257 melanoma, above 100 µM.
`Cc1nc2ccc(Cl)cc2c2c1CCN2c1ccc(F)cc1`: the concentration for total growth inhibition (TGI) was above 100 µM with NCI-H522 lung; 65.1 µM in the assay on RPMI-8226 leukemia; above 100 µM in the assay on HT29 colon; above 100 µM with SK-OV-3 ovarian; 49.6 µM in the assay with UACC-257 melanoma.
Turning to `COc1ccccc1NC1Oc2cc3c(cc2C(c2cc(OC)c(OC)c(OC)c2)C1C)OCO3` (centres undefined), the concentration for total growth inhibition (TGI) is 4.82 µM with NCI-H522 lung; 21 µM with RPMI-8226 leukemia; above 100 µM in the assay on HT29 colon; above 31.1 µM in the assay on SK-OV-3 ovarian; above 100 µM in the assay on UACC-257 melanoma.
Take `N#Cc1ccc(C2ON=C(c3ccccc3)N2C23CC4CC(CC(C4)C2)C3)cc1` (centres undefined): the total growth inhibition concentration (TGI) in the assay on NCI-H522 lung, in the assay with RPMI-8226 leukemia, in the assay on HT29 colon, with SK-OV-3 ovarian and with UACC-257 melanoma was above 10 µM in each case.
Consider `Cn1c(=O)c2c(nc3n2CCCC(=O)N3CCCCl)n(C)c1=O`, for which the TGI in the assay on NCI-H522 lung, in the assay with RPMI-8226 leukemia, in the assay with HT29 colon, in the assay with SK-OV-3 ovarian and with UACC-257 melanoma was above 100 µM in each case.

The term TGI denotes the concentration at which net growth stops. Low values mean more potent growth arrest, high ones less potent growth arrest. For orientation: GI50 means the concentration giving 50% growth inhibition.
